Columns and labels:
[1] = biological target: T1, human PLK4 (Homo sapiens, UniProt O00444); experiment: PLK4 inhibition assay (indirect ELISA); assay type: biochemical; conditions: GST-PLK4 4 nM, 15 μM ATP; read-out: IC50 Ranges PLK4
T1 construct: amino terminal GST fusion of residues 1-391 of human PLK4; made in house; host or cells: E. coli
T1 sequence (O00444 1-391): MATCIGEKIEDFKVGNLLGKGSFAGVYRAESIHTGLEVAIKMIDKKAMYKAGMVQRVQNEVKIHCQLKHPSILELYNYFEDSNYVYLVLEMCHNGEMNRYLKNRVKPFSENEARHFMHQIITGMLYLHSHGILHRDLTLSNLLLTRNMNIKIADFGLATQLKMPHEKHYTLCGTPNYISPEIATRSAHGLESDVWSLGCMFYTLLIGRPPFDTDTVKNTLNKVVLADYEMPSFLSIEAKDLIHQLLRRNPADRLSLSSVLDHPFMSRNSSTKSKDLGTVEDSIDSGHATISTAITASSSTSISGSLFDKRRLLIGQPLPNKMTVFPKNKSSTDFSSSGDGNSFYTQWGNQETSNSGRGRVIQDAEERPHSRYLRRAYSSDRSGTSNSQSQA
Method in brief: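 Compounds were tested either at a single 10 μM dose or across 10-point titrations (typically 0.5 to 0.001 μM), preincubated 15 min with 4 nM GST-PLK4 (human 1-391, dephosphorylated) before 15 μM ATP was added. MBP substrate phosphorylation over 30 min, pH 7.5 HEPES/MgCl2 buffer, read by HRP/TMB ELISA (450 nm). % inhibition vs. high-activity control; IC50 by logistic fit.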

[2] = system: MDA-MB-231 breast cancer cells; experiment: Cell growth inhibition, Sulforhodamine B assay, MDA-MB-231; assay type: cell-based; conditions: Homo sapiens, 120 h, 5 days culture, SRB assay, read-out: Cell Line GI50 Range MDA-MB-231
Description: (§1) Breast cancer cells (MDA-MB-231, MDA-MB-468), colon cancer cells (HCT116, HT29) and ovarian cancer cells (PA-1, OVCAR-3) were seeded (1000 to 4000 in 80 μl per well depending on the cell growth rate) into 96 well plates 24 hours before compound overlay. Compounds were prepared as 10 mM stock solutions in 100% DMSO which were diluted with DMEM (Dulbecco's Modified Eagle's Medium) cell growth Medium (Invitrogen, Burlington, ON, Canada) containing 10% FBS (Fetal Bovine Serum) to concentrations ranging from 50 nM to 250 μM. Aliquots (20 μl) from each concentration were overlaid to 80 μl of the pre-seeded cells in the 96 well plates to make final concentrations of 10 nM to 50 μM. The cells were cultured for 5 days before the Sulforhodamine B assay (SRB) was performed to determine the compound's cell growth inhibition activity.
(§2) Sulforhodamine B (purchased from Sigma, Oakville, ON, Canada) is a water-soluble dye that binds to the basic amino acids of the cellular proteins. Thus, colorimetric measurement of the bound dye provides an estimate of the total protein mass that is related to the cell number. the cells are fixed in situ by gently aspirating off the culture media and adding 50 μl ice cold 10% Trichloroacetic Acid (TCA) per well and incubate at 4° C. for 30-60 min, The plates are washed with water five times and allowed to air dry for 5 min. Addition of 50 μl 0.4% (w/v) SRB solution in 1% (v/v) acetic acid to each well and incubatation for 30 min at RT completes the staining reaction. Following staining, plates are washed four times with 1% acetic acid to remove unbound dye and then allowed to air dry for 5 min. The stain is solubilized with 100 μl of 10 mM Tris pH 10.5 per well. Absorbance is read at 570 nm.
(§3) The percentage (%) of relative growth inhibition was calculated by comparing to DMSO treated only cells (100%). […] The GI50 was calculated using GraphPad PRISM software (GraphPad Software, Inc., San Diego, Calif., USA).

[3] = system: HT29 colon cancer cells; experiment: Cell growth inhibition, Sulforhodamine B assay, HT29; assay type: cell-based; conditions: Homo sapiens, HT-29, 120 h, 5 days culture, SRB assay, read-out: Cell Line GI50 Range HT29
Description: as §1, §2, §3

[4] = biological target: T2, Aurora B (Homo sapiens, UniProt Q96GD4); experiment: Aurora B inhibition assay (Z-Lyte); assay type: biochemical; conditions: 28 nM Aurora B, 128 μM ATP; read-out: IC50 Ranges Aurora B
T2 construct: purchased Invitrogen PV3970
T2 sequence (Q96GD4 whole entry): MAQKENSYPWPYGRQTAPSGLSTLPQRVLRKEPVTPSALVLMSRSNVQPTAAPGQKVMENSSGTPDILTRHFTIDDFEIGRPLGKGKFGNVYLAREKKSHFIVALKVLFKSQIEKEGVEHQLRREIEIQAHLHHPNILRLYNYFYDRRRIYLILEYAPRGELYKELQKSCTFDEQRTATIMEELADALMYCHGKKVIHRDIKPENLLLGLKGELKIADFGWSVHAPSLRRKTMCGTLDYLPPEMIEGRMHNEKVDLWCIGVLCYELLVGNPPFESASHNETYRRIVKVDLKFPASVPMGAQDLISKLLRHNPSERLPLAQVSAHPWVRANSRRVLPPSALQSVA
Description: Aurora B inhibition was determined using the Z-Lyte assay kit from Invitrogen. The assay was performed using the recommended manufacturer's instructions with 128 μM ATP and 28 nM Aurora B (Invitrogen cat #PV3970). The % inhibition values were determined according to the manufacturer's directions and IC50 values were obtained using a non-linear 4 point logistic curve fit (XLfit4, IDBS)

[5] = system: OVCAR-3 ovarian cancer cells; experiment: Cell growth inhibition, Sulforhodamine B assay, OVCAR-3; assay type: cell-based; conditions: Homo sapiens, 120 h, 5 days culture, SRB assay, read-out: Cell Line GI50 Range OVCAR-3
[6] = system: HCT116 colon cancer cells; experiment: Cell growth inhibition, Sulforhodamine B assay, HCT116; assay type: cell-based; conditions: Homo sapiens, HCT-116, 120 h, 5 days culture, SRB assay, read-out: Cell Line GI50 Range HCT116
[7] = biological target: T3, human TTK (Homo sapiens, UniProt P33981); experiment: TTK inhibition assay (indirect ELISA); assay type: biochemical; conditions: GST-TTK 0.68 nM, 16 μM ATP; read-out: IC50 Ranges TTK
T3 construct: amino terminal GST fusion of full length human TTK; purchased Invitrogen
T3 sequence (P33981 1-857): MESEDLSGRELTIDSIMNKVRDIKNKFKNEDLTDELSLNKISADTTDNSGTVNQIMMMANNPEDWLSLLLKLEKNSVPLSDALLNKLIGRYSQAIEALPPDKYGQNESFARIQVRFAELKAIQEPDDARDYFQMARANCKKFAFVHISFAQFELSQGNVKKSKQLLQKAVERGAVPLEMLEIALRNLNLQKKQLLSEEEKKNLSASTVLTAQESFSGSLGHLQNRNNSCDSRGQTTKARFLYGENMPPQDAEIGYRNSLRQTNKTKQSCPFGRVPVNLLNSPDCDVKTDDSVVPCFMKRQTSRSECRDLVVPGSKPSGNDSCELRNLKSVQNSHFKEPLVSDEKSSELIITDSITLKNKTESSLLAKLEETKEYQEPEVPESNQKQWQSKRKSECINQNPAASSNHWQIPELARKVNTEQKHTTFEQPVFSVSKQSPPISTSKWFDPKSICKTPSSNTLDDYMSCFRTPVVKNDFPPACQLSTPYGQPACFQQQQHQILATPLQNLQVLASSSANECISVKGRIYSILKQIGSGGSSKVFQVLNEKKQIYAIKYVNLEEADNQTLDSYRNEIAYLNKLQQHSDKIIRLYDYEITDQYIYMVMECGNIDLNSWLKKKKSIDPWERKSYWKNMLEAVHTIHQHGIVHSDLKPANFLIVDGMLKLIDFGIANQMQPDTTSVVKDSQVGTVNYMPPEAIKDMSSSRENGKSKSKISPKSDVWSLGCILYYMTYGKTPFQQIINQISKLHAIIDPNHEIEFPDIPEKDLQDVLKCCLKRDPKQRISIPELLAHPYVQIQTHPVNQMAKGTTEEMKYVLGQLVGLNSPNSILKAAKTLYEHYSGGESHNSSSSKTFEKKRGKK

[8] = system: MDA-MB-468 breast cancer cells; experiment: Cell growth inhibition, Sulforhodamine B assay, MDA-MB-468; assay type: cell-based; conditions: Homo sapiens, 120 h, 5 days culture, SRB assay, read-out: Cell Line GI50 Range MDA-MB-468

Structure (SMILES) | IC50 [1] | GI50 [2] | GI50 [3] | IC50 [4] | GI50 [5] | GI50 [6] | IC50 [7] | GI50 [8]
CC(C)N1CCC(Oc2ccc(-c3n[nH]c4ccc(NC(=O)C(c5ccsc5)N5CCCC5)cc34)cc2)CC1 (stereo not drawn) [Example A30, N-(3-(4-((1-isopropylpiperidin-4-yl)oxy)phenyl)-1H-indazol-5-yl)-2-(pyrrolidin-1-yl)-2-(thiophen-3-yl)acetamide] | ≤ 5 µM | ≤ 5 µM | ≤ 5 µM | ≤ 5 µM | ≤ 5 µM | ≤ 5 µM | ≤ 5 µM | ≤ 5 µM
CN1CCC(Oc2ccc(-c3n[nH]c4ccc(NC(=O)C(c5ccsc5)N5CCCC5)cc34)cc2Cl)CC1 (stereo not drawn) [Example A57, N-(3-(3-chloro-4-((1-methylpiperidin-4-yl)oxy)phenyl)-1H-indazol-5-yl)-2-(pyrrolidin-1-yl)-2-(thiophen-3-yl)acetamide] | ≤ 5 µM | ≤ 5 µM | ≤ 5 µM | ≤ 5 µM | ≤ 5 µM | ≤ 5 µM | ≤ 5 µM | ≤ 5 µM
O=C(Nc1ccc2[nH]nc(-c3ccc(OCCN4CCCC4)cc3)c2c1)C(c1ccsc1)N1CCCC1 (stereo not drawn) [Example A44, 2-(pyrrolidin-1-yl)-N-(3-(4-(2-(pyrrolidin-1-yl)ethoxy)phenyl)-1H-indazol-5-yl)-2-(thiophen-3-yl)acetamideamide] | ≤ 5 µM | ≤ 5 µM | ≤ 5 µM | ≤ 5 µM | ≤ 5 µM | ≤ 5 µM | ≤ 5 µM | ≤ 5 µM
CN1CCC(Oc2ccc(-c3n[nH]c4ccc(NC(=O)C(c5ccsc5)N5CCCCC5)cc34)cc2)CC1 (stereo not drawn) [Example A31, N-(3-(4-((1-methylpiperidin-4-yl)oxy)phenyl)-1H-indazol-5-yl)-2-(piperidin-1-yl)-2-(thiophen-3-yl)acetamide] | ≤ 5 µM | ≤ 5 µM | ≤ 5 µM | ≤ 5 µM | ≤ 5 µM | ≤ 5 µM | ≤ 5 µM | ≤ 5 µM
Cc1cc(C)c(NC(=O)Nc2ccc3[nH]nc(-c4ccc(OC5CCN(C)CC5)cc4)c3c2)c(Cl)c1 [Example A77, 1-(2-chloro-4,6-dimethylphenyl)-3-(3-(4-((1-methylpiperidin-4-yl)oxy)phenyl)-1H-indazol-5-yl)urea] | ≤ 5 µM | ≤ 5 µM | ≤ 5 µM | ≤ 5 µM | ≤ 5 µM | ≤ 5 µM | ≤ 5 µM | ≤ 5 µM
O=C(Nc1ccc2[nH]nc(-c3ccc(N4CCOCC4)cc3)c2c1)C(c1ccsc1)N1CCCCC1 (stereo not drawn) [Example A32, N-(3-(4-morpholinophenyl)-1H-indazol-5-yl)-2-(piperidin-1-yl)-2-(thiophen-3-yl)acetamide] | ≤ 5 µM | 20 to 50 µM | ≤ 5 µM | ≤ 5 µM | 5 to 20 µM | ≤ 5 µM | ≤ 5 µM | ≤ 5 µM
Cc1cc(-c2n[nH]c3ccc(C(=O)NC(c4ccccc4)C4CC4)cc23)ccc1N1CCOCC1 (stereo not drawn) [Example A64, N-(cyclopropyl(phenyl)methyl)-3-(3-methyl-4-morpholinophenyl)-1H-indazole-5-carboxamide] | ≤ 5 µM | 5 to 20 µM | ≤ 5 µM |  | 20 to 50 µM | ≤ 5 µM | ≤ 5 µM | 5 to 20 µM
CN1CCC(Oc2ccc(-c3n[nH]c4ccc(C(=O)NCC(c5ccsc5)N5CCOCC5)cc34)cc2)CC1 (stereo not drawn) [Example A75, 3-(4-((1-methylpiperidin-4-yl)oxy)phenyl)-N-(2-morpholino-2-(thiophen-3-yl)ethyl)-1H-indazole-5-carboxamide] | ≤ 5 µM | 5 to 20 µM | ≤ 5 µM |  | 5 to 20 µM | ≤ 5 µM | ≤ 5 µM | ≤ 5 µM
C[C@@H](NC(=O)c1ccc2[nH]nc(-c3ccc(N4CCOCC4)cc3)c2c1)C1CCCCC1 [Example A48, (R)—N-(1-cyclohexylethyl)-3-(4-morpholinophenyl)-1H-indazole-5-carboxamide] | ≤ 5 µM | ≤ 5 µM | ≤ 5 µM |  | 5 to 20 µM | ≤ 5 µM | ≤ 5 µM | ≤ 5 µM
O=C(Nc1ccc2[nH]nc(-c3ccc(NC4CCCCC4)cc3)c2c1)C(c1ccsc1)N1CCCC1 (stereo not drawn) [Example A68, N-(3-(4-(cyclohexylamino)phenyl)-1H-indazol-5-yl)-2-(pyrrolidin-1-yl)-2-(thiophen-3-yl)acetamide] | ≤ 5 µM | ≤ 5 µM | ≤ 5 µM |  | ≤ 5 µM | ≤ 5 µM | ≤ 5 µM | ≤ 5 µM
CN1CCC(Oc2ccc(-c3n[nH]c4ccc(NC(=O)Nc5ccccc5F)cc34)cc2)CC1 [Example A56, 1-(2-fluorophenyl)-3-(3-(4-((1-methylpiperidin-4-yl)oxy)phenyl)-1H-indazol-5-yl)urea] | ≤ 5 µM | ≤ 5 µM | ≤ 5 µM |  | 5 to 20 µM | ≤ 5 µM | ≤ 5 µM | ≤ 5 µM
O=C(NC(c1ccccc1)C1CC1)c1ccc2[nH]nc(-c3cccc(N4CCOCC4)c3)c2c1 (stereo not drawn) [Example A61, N-(cyclopropyl(phenyl)methyl)-3-(3-morpholinophenyl)-1H-indazole-5-carboxamide] | ≤ 5 µM | 5 to 20 µM | ≤ 5 µM |  | 5 to 20 µM | ≤ 5 µM | ≤ 5 µM | 5 to 20 µM
CN1CCC(Oc2ccc(-c3n[nH]c4ccc(NC(=O)Nc5ccccc5Cl)cc34)cc2)CC1 [Example A62, 1-(2-chlorophenyl)-3-(3-(4-((1-methylpiperidin-4-yl)oxy)phenyl)-1H-indazol-5-yl)urea] | ≤ 5 µM | ≤ 5 µM | ≤ 5 µM |  | ≤ 5 µM | ≤ 5 µM | ≤ 5 µM | ≤ 5 µM
O=C(NC(c1ccccc1)C1CC1)c1ccc2[nH]nc(-c3ccc(N4CCOCC4)c(F)c3)c2c1 (stereo not drawn) [Example A65, N-(cyclopropyl(phenyl)methyl)-3-(3-fluoro-4-morpholinophenyl)-1H-indazole-5-carboxamide] | ≤ 5 µM | ≤ 5 µM | ≤ 5 µM |  | 5 to 20 µM | ≤ 5 µM | ≤ 5 µM | ≤ 5 µM
C[C@H](NC(=O)c1ccc2[nH]nc(-c3ccc(N4CCOCC4)cc3)c2c1)C1CCCCC1 [Example A40, (S)—N-(1-cyclohexylethyl)-3-(4-morpholinophenyl)-1H-indazole-5-carboxamide] | ≤ 5 µM | ≤ 5 µM | ≤ 5 µM |  | ≤ 5 µM | ≤ 5 µM | ≤ 5 µM | ≤ 5 µM

Source: patent US20140051679A1, “KINASE INHIBITORS AND METHOD OF TREATING CANCER WITH SAME” (UNIVERISTY HEALTH NETWORKS, priority 2011, published 2014)
